This is an account of results in ChEMBL document CHEMBL3507680, “University of Dundee, Gates Library screen for HepG2 cell viability”.

This data set can be described thus: Human HepG2 cell viability assay in 384 well format. In kind it is toxicity, cell-based. Also on record: dose 125 nL, time 70.5 hour; cytotoxicity at 70.5 h: concentration not given beside the values. The note with it: HepG2 cells, read-out: Inhibition.
For the compound `Cc1n[nH]c(C2CN(C(=O)c3ccnc(C4CC4)n3)CCO2)n1` (stereo not given), the cytotoxicity at 70.5 h is -10.4%.
For `O=C1CC(CNc2cncc(Br)c2)c2ccccc2N1` (stereo not given), the cytotoxicity at 70.5 h came out at 3.03%.
`NC(=O)CCn1ccc(NC(=O)c2ccc(Br)o2)n1`: the cytotoxicity at 70.5 h was -5.23%.
Take `COc1ccccc1CNCCc1cccc(C(N)=O)c1`: the cytotoxicity at 70.5 h is -12.3%.
Regarding `COc1ccccc1CN(CC1CCCO1)C(=O)c1scnc1C` (stereo not given), the cytotoxicity at 70.5 h was -12.6%.
For `CC(=O)NCCNC(=O)c1cnc(-c2ccc(C)cc2C)s1` the value was -6.99%; for `Cc1cc(C(=O)NCc2cccs2)c2c(C3CCCN3)noc2n1` (stereo not given), -6.49%.
With `Cc1nc(CN2CCc3nn(C(C)C)c(=O)cc3C2)oc1C`, the cytotoxicity at 70.5 h was found to be 4.51%.
As for `Cc1[nH]c(=O)[nH]c(=O)c1CN1CCCC(CCc2ccccc2F)C1` (stereo not given), the figure is -5.63%; as for `CS(=O)(=O)N1CCCCC1CCc1ccc(O)cc1` (stereo not given), 16.6%.
As to `O=C(Cn1nc(-c2ccc(F)cc2)oc1=O)Nc1ccccc1`, the cytotoxicity at 70.5 h came to 13.9%.
For the compound `Cc1cccc(CN2CCCC2(C(N)=O)c2cnccn2)n1` (stereo not given), the cytotoxicity at 70.5 h was 19%.
For `Cc1ccccc1C(C)NC(=O)Cc1c(C)nc2cc(=O)[nH]n2c1C` (stereo not given), the cytotoxicity at 70.5 h was -10.1%.
In the case of `COc1cc(N2CCC3(CC2)CN(S(C)(=O)=O)c2ccccc23)ncn1`, the cytotoxicity at 70.5 h is -2.83%.
As for `O=C(CC1=CSC2=NCCCN12)N1CCCCCC1c1ccco1` (stereo not given), the cytotoxicity at 70.5 h stood at 9.09%.
Turning to `COCc1cnc2n1CCN(C(=O)C1=CCCC1)C2C` (stereo not given), the cytotoxicity at 70.5 h is -14.6%.
As to `O=C1Nc2ccccc2NC12CCN(c1cccc(C(F)(F)F)n1)CC2`, the cytotoxicity at 70.5 h was determined as 52.4%.
Regarding `CCNc1cc2c(nn1)CCN(C(=O)c1nccnc1N)C2`, the cytotoxicity at 70.5 h is -2.38%.
Take `O=c1[nH]ccc2cc(-c3cc(O)cc(CCC4CCCCN4)c3)ccc12` (stereo not given): the cytotoxicity at 70.5 h is -7.29%.
Turning to `CCc1nccn1CCC(=O)N1C[C@H]2CC[C@@H]1CN(C(=O)N(C)C)C2`, the cytotoxicity at 70.5 h is -3.14%.
For `O=C(CCC(=O)c1ccccc1)NC1(C(=O)NCC2CC2)CCCC1` the value was -9.03%; for `CN(C)C(=O)[C@H]1C[C@@H]2CN(C(=O)NCC3CCCCC3)C[C@H]1O2`, -0.82%.
On to `COCCN1CCC(Cc2cncc(-c3ccc(C(=O)O)cc3)n2)C1` (stereo not given), for which the cytotoxicity at 70.5 h was -11.8%.
As for `CN(C(=O)c1ccco1)c1nc2c(s1)CCCC2`, the figure is -3.33%.
`O=C(O)C1(Cc2ccccc2F)CCCN(c2ncnc3[nH]ccc23)C1` (stereo not given): the cytotoxicity at 70.5 h was -0.879%.
Take `Cc1nccn1C1CCCN(C(=O)c2ccc3c(c2)CCC3)C1` (stereo not given): the cytotoxicity at 70.5 h is 0.881%.
Regarding `Cc1nc(C)n(CC2CCCN(CCOc3ccccc3C#N)C2)n1` (stereo not given), the cytotoxicity at 70.5 h came to 18.8%.
As for `CC(C)n1cnnc1CNC(=O)c1cnn(Cc2ccccc2)c1`, the figure is -2.61%; as for `COc1ccc(CCC(=O)Nc2ccc3ncn(C)c(=O)c3c2)cc1`, -2.91%.
In the case of `CCc1cnc(N2C[C@H]3C[C@H](C(=O)NC)[C@@H](C2)O3)nc1`, the cytotoxicity at 70.5 h was -1.27%.
Take `Cc1cc(CN2C[C@@H]3COC[C@H](C(=O)N4CCCCO4)[C@@H]3C2)no1`: the cytotoxicity at 70.5 h was -11.3%.
For the compound `COc1ccccc1N1CCC(CNS(=O)(=O)c2cccc(C#N)c2)C1` (stereo not given), the cytotoxicity at 70.5 h stood at 22.7%.
For `CNC(=O)c1sc2ccccc2c1C1CCN(c2cc(C)nc(C)n2)C1` (stereo not given) the value was 18.1%.
`CC(=O)N(C)Cc1cccc(NC(=O)c2cnn(C)c2C)c1`: the cytotoxicity at 70.5 h stood at 22%.
In the case of `Cc1ccc([C@H]2CN(C(C)C)C[C@@H]2NS(=O)(=O)N2CCOCC2)o1`, the cytotoxicity at 70.5 h was -5.29%.
For `CC1COCCN1Cc1nc(-c2ccc(Br)s2)no1` (stereo not given), the cytotoxicity at 70.5 h came out at 1.52%.
As to `O=C(c1ccc(-c2ccoc2)nc1)N1CCCN(C2CCCCC2)CC1`, the cytotoxicity at 70.5 h was -12.9%.
For `Cc1cc(CN(C)C(=O)NC2CCN(Cc3ccccc3)C2)no1` (stereo not given), the cytotoxicity at 70.5 h came out at 7.2%.
In the case of `CCN(CC)[C@@H]1CN(Cc2ccc(C)o2)[C@@H]2CCCO[C@H]12`, the cytotoxicity at 70.5 h is -14.1%.
In the case of `CCC(CC)(CNC(=O)OC(C)(C)C)NC(=O)C1CCCO1` (stereo not given), the cytotoxicity at 70.5 h is -3.25%.
As for `CSc1nc(N)c2c(n1)N=C1COC(O)=C1C2c1cccc(Cl)c1` (stereo not given), the cytotoxicity at 70.5 h came out at 47.4%.
As for `O=c1ccc(-n2cccn2)nn1CCNS(=O)(=O)c1ccc(F)c(Cl)c1`, the cytotoxicity at 70.5 h stood at 2.64%.
For `Cn1ncc2c(=O)[nH]c(CN3CCCC3c3ccccc3Cl)nc21` (stereo not given) the value was -8.75%; for `CCc1ccc(S(=O)(=O)NCCC(O)c2ccoc2)s1` (stereo not given), -10.1%.
For `O=C(Cn1cc(-c2ccccc2)cn1)NC(C1CC1)C1CC1`, the cytotoxicity at 70.5 h is -5.32%.
`CCc1ccc(NC(=O)N2C[C@H]3C[C@H](C(=O)NC)[C@@H](C2)O3)cc1`: the cytotoxicity at 70.5 h turned out to be 3.53%.
With `CS(=O)(=O)NCc1nnc2n1CCN(Cc1ccccn1)C2`, the cytotoxicity at 70.5 h was -9%.
As to `CCn1ncc2c(C(F)(F)F)cc(-c3ccn(C)n3)nc21`, the cytotoxicity at 70.5 h is -8.47%.
For the compound `CC(NC(=O)N1CCCN(C)CC1)c1ccc2c(c1)OCCO2` (stereo not given), the cytotoxicity at 70.5 h is -6.8%.
As for `CC(C)(O)CN1CCN(C(=O)c2ccn(-c3cccc(F)c3)n2)CC1`, the figure is -4.39%; as for `CC(C)C(NC(=O)Nc1cnn(CC(N)=O)c1)c1ccc(Cl)cc1` (stereo not given), -1.5%.
On to `Cc1noc(C)c1CCC(=O)NCCc1cccs1`, for which the cytotoxicity at 70.5 h was -7.09%.
Take `CC1CN(Cc2cccc(CN)c2)CCO1` (stereo not given): the cytotoxicity at 70.5 h is -9.2%.
Consider `CO[C@@H]1CCN(S(=O)(=O)c2cn(C)cn2)[C@H]1Cc1ccncc1`, for which the cytotoxicity at 70.5 h stood at 4.82%.
In the case of `CNC(=O)C1CCN(C(=O)NCc2ccc(C)n2C)CC1`, the cytotoxicity at 70.5 h was -4.71%.
As to `Cc1ccc(CN2CCNC(C(=O)NC3CC3)C2)cc1C` (stereo not given), the cytotoxicity at 70.5 h is -10.4%.
Regarding `Cc1csc(CN2CC(CO)Oc3ccccc32)n1` (stereo not given), the cytotoxicity at 70.5 h was determined as 7.51%.
For `CCOc1ncccc1NC(=O)c1cc2c(s1)CCC2` the value was 1.84%; for `CCC(C(=O)Nc1ccc(-c2nc(C)n[nH]2)cc1)N1CCCC1=O` (stereo not given), -9.81%.
Turning to `CCCNC(=O)COc1cc(C)c2c(C)nn(-c3ccc(C)cc3)c2n1`, the cytotoxicity at 70.5 h is -2.23%.
As for `Cc1cc(-c2cc(F)ccc2C(=O)O)nc(C2CCCCN2C(C)C)n1` (stereo not given), the cytotoxicity at 70.5 h is -5.96%.
Consider `Cc1ccc(OCCN(C)Cc2nc3c(cnn3C)c(=O)[nH]2)cc1`, for which the cytotoxicity at 70.5 h was -8.39%.
With `NS(=O)(=O)CC1CCN(c2ncccc2C(F)(F)F)CC1`, the cytotoxicity at 70.5 h was determined as 7.95%.
As for `CCCN(CCC)S(=O)(=O)NC(C)C(=O)N(C)C` (stereo not given), the figure is -6.45%; as for `N#Cc1cccc(CN2Cc3nccn3CC(CN3CCCC3)C2)c1` (stereo not given), 0.61%.
For the compound `Cc1nccn1CCC1CCN(C2CCC3(CCNCC3)CC2)CC1`, the cytotoxicity at 70.5 h came to 13.6%.
For `O=C(c1csc(I)c1)N1CCc2c(ncn2C2CC2)C1` the value was -3.47%.
In the case of `O=C(NCc1ccccc1)C1=NOC2(CCNC2)C1` (stereo not given), the cytotoxicity at 70.5 h was -11%.
As for `CNC(=O)Cc1ccc(NC(=O)NC2(c3cccc(F)c3)CC2)cc1`, the figure is -3.37%.
`CC(C)(C)c1n[nH]c(C2CN(CCc3cccs3)CCO2)n1` (stereo not given): the cytotoxicity at 70.5 h came out at 3.37%.
